Patent US9000022B2 (Exelixis Patent Company LLC, priority 2005, dated 2015)

Test system: LXRα and/or LXRβ
Experiment: Co-transfection assay (LXRE luciferase reporter, CV-1 cells)
Assay type: cell-based, human
Conditions: tested as described in Example 33; IC50 or EC50 for LXRα and/or LXRβ, isoform not specified; read-out: activity (IC50 or EC50 for LXR)
Summary of the method: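 CV-1 cells transiently co-transfected with full-length human LXRα or LXRβ plus RXRα, an LXRE×1-Tk-luciferase reporter and a β-galactosidase control. Compounds incubated 20 h at 37 °C (≤1% DMSO; screen at 10 μM final); luciferase read after lysis. EC50/IC50 from 8-point half-log curves (4 wells per point, ≥3 experiments); efficacy relative to a reference agonist high control and DMSO.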

| SMILES | IC50 or EC50 (potency, activation or inhibition) |
| --- | --- |
| CC(C)(O)c1cn(-c2ccc(-c3cccc(S(C)(=O)=O)c3)cc2F)c(-c2ccccc2C(F)(F)F)n1 [Example 109, 2-(1-(3-fluoro-3′-(methyl-sulfonyl)biphenyl-4-yl)-2-(2-(trifluoromethyl)phenyl)-1H-imidazol-4-yl)propan-2-ol] | < 1 µM |
| CCS(=O)(=O)c1cccc(-c2ccc(-n3cc(C(C)(C)O)nc3-c3ccccc3C(F)(F)F)c(F)c2)c1 [Example 110, 2-(1-(3′-(ethylsulfonyl)-3-fluoro-biphenyl-4-yl)-2-(2-(trifluoromethyl)phenyl)-1H-imidazol-4-yl)propan-2-ol] | < 1 µM |
| CC(C)(O)c1cn(-c2ccc(-c3cccc(S(C)(=O)=O)c3)c(F)c2)c(-c2ccccc2C(F)(F)F)n1 [Example 111, 2-(1-(2-fluoro-3′-(methyl-sulfonyl)biphenyl-4-yl)-2-(2-(trifluoromethyl)phenyl)-1H-imidazol-4-yl)propan-2-ol] | < 1 µM |
| CCS(=O)(=O)c1cccc(-c2ccc(-n3cc(C(C)(C)O)nc3-c3ccccc3C(F)(F)F)cc2F)c1 [Example 112, 2-(1-(3′-(ethylsulfonyl)-2-fluoro-biphenyl-4-yl)-2-(2-(trifluoro-methyl)phenyl)-1H-imidazol-4-yl)propan-2-ol] | < 1 µM |
| CC(C)(O)c1cn(-c2ccc(-c3cccc(S(C)(=O)=O)c3)cc2F)c(-c2cccc(Cl)c2Cl)n1 [Example 113, 2-(2-(2,3-dichlorophenyl)-1-(3-fluoro-3′-(methylsulfonyl)biphenyl-4-yl)-1H-imidazol-4-yl)propan-2-ol] | < 1 µM |
| CCS(=O)(=O)c1cccc(-c2ccc(-n3cc(C(C)(C)O)nc3-c3cccc(Cl)c3Cl)c(F)c2)c1 [Example 114, 2-(2-(2,3-dichlorophenyl)-1-(3′-(ethylsulfonyl)-3-fluorobiphenyl-4-yl)-1H-imidazol-4-yl)propan-2-ol] | < 1 µM |
| CC(C)(O)c1cn(-c2ccc(-c3cccc(S(C)(=O)=O)c3)cc2F)c(-c2c(Cl)cccc2Cl)n1 [Example 115, 2-(2-(2,6-dichlorophenyl)-1-(3-fluoro-3′-(methylsulfonyl)biphenyl-4-yl)-1H-imidazol-4-yl)propan-2-ol] | < 1 µM |
| CCS(=O)(=O)c1cccc(-c2ccc(-n3cc(C(C)(C)O)nc3-c3c(Cl)cccc3Cl)c(F)c2)c1 [Example 116, 2-(2-(2,6-dichlorophenyl)-1-(3′-(ethylsulfonyl)-3-fluorobiphenyl-4-yl)-1H-imidazol-4-yl)propan-2-ol] | < 1 µM |
| CC(C)(O)c1cn(-c2ccc(-c3ccc(CO)c(S(C)(=O)=O)c3)cc2F)c(-c2cccc(Cl)c2Cl)n1 [Example 117, 2-(2-(2,3-dichlorophenyl)-1-(3-fluoro-4′-(hydroxymethyl)-3′-(methyl-sulfonyl)biphenyl-4-yl)-1H-imidazol-4-yl)propan-2-ol] | < 1 µM |
| Cc1c(Cl)cccc1-c1nc(C(C)(C)O)cn1-c1ccc(-c2cccc(S(C)(=O)=O)c2)cc1F [Example 118, 2-(2-(3-chloro-2-methylphenyl)-1-(3-fluoro-3′-(methylsulfonyl)biphenyl-4-yl)-1H-imidazol-4-yl)propan-2-ol] | < 1 µM |
| CCS(=O)(=O)c1cccc(-c2ccc(-n3cc(C(C)(C)O)nc3-c3cccc(Cl)c3C)c(F)c2)c1 [Example 119, 2-(2-(3-chloro-2-methylphenyl)-1-(3′-(ethylsulfonyl)-3-fluorobiphenyl-4-yl)-1H-imidazol-4-yl)propan-2-ol] | < 1 µM |
| Cc1c(Cl)cccc1-c1nc(C(C)(C)O)cn1-c1ccc(-c2ccc(CO)c(S(C)(=O)=O)c2)cc1F [Example 120, 2-(2-(3-chloro-2-methylphenyl)-1-(3-fluoro-4′-(hydroxymethyl)-3′-(methylsulfonyl)biphenyl-4-yl)-1H-imidazol-4-yl)propan-2-ol] | < 1 µM |
| CC(C)(O)c1cn(-c2ccc(-c3ccc(CO)c(S(C)(=O)=O)c3)cc2F)c(-c2ccccc2C(F)(F)F)n1 [Example 121] | < 1 µM |
| CC(C)(O)c1cn(-c2ccc(-c3ccc(CO)c(S(C)(=O)=O)c3)cc2F)c(-c2c(Cl)cccc2Cl)n1 [Example 122, 2-(2-(2,6-dichlorophenyl)-1-(3-fluoro-4′-(hydroxymethyl)-3′-(methylsulfonyl)biphenyl-4-yl)-1H-imidazol-4-yl)propan-2-ol] | < 1 µM |
| CC(C)(O)c1cn(-c2ccc(-c3cccc(S(C)(=O)=O)c3)cc2F)c(-c2cccc(F)c2Cl)n1 [Example 123, 2-(2-(2-chloro-3-fluorophenyl)-1-(3-fluoro-3′-(methylsulfonyl)biphenyl-4-yl)-1H-imidazol-4-yl)propan-2-ol] | < 1 µM |
| CCS(=O)(=O)c1cccc(-c2ccc(-n3cc(C(C)(C)O)nc3-c3cccc(F)c3Cl)c(F)c2)c1 [Example 124, 2-(2-(2-chloro-3-fluorophenyl)-1-(3′-(ethylsulfonyl)-3-fluorobiphenyl-4-yl)-1H-imidazol-4-yl)propan-2-ol] | < 1 µM |
| CC(C)(O)c1cn(-c2ccc(-c3ccc(CO)c(S(C)(=O)=O)c3)cc2F)c(-c2cccc(F)c2Cl)n1 [Example 125, 2-(2-(2-chloro-3-fluorophenyl)-1-(3-fluoro-4′-(hydroxymethyl)-3′-(methylsulfonyl)biphenyl-4-yl)-1H-imidazol-4-yl)propan-2-ol] | < 1 µM |
| CCS(=O)(=O)c1cccc(-c2ccc(-n3cc(C(C)(C)O)nc3-c3c(F)cccc3Cl)c(F)c2)c1 [Example 126, 2-(2-(2-chloro-6-fluorophenyl)-1-(3′-(ethylsulfonyl)-3-fluorobiphenyl-4-yl)-1H-imidazol-4-yl)propan-2-ol] | < 1 µM |
| CC(C)(O)c1cn(-c2ccc(-c3ccc(CO)c(S(C)(=O)=O)c3)cc2F)c(-c2c(F)cccc2Cl)n1 [Example 127, 2-(2-(2-chloro-6-fluorophenyl)-1-(3-fluoro-4′-(hydroxymethyl)-3′-(methylsulfonyl)biphenyl-4-yl)-1H-imidazol-4-yl)propan-2-ol] | 1 to 10 µM |
| Cc1cccc(Cl)c1-c1nc(C(C)(C)O)cn1-c1ccc(-c2cccc(S(C)(=O)=O)c2)cc1F [Example 128, 2-(2-(2-chloro-6-methylphenyl)-1-(3-fluoro-3′-(methylsulfonyl)biphenyl-4-yl)-1H-imidazol-4-yl)propan-2-ol] | < 1 µM |
| CCS(=O)(=O)c1cccc(-c2ccc(-n3cc(C(C)(C)O)nc3-c3c(C)cccc3Cl)c(F)c2)c1 [Example 129] | < 1 µM |
| CC(C)(O)c1cn(-c2ccc(-c3cccc(S(C)(=O)=O)c3)cc2F)c(-c2c(F)cccc2F)n1 [Example 130, 2-(2-(2,6-difluorophenyl)-1-(3-fluoro-3′-(methylsulfonyl)biphenyl-4-yl)-1H-imidazol-4-yl)propan-2-ol] | 1 to 10 µM |
| CCS(=O)(=O)c1cccc(-c2ccc(-n3cc(C(C)(C)O)nc3-c3c(F)cccc3F)c(F)c2)c1 [Example 131, 2-(2-(2,6-difluorophenyl)-1-(3′-(ethylsulfonyl)-3-fluorobiphenyl-4-yl)-1H-imidazol-4-yl)propan-2-ol] | 1 to 10 µM |
| Cc1cccc(Cl)c1-c1nc(C(C)(C)O)cn1-c1ccc(-c2ccc(CO)c(S(C)(=O)=O)c2)cc1F [Example 133, 2-(2-(2-chloro-6-methylphenyl)-1-(3-fluoro-4′-(hydroxymethyl)-3′-(methylsulfonyl)biphenyl-4-yl)-1H-imidazol-4-yl)propan-2-ol] | < 1 µM |
| CC(C)(O)c1cn(-c2ccc(-c3cccc(S(C)(=O)=O)c3)cc2F)c(-c2c(F)cccc2Cl)n1 [Example 134, 2-(2-(2-chloro-6-fluorophenyl)-1-(3-fluoro-3′-(methylsulfonyl)biphenyl-4-yl)-1H-imidazol-4-yl)propan-2-ol] | < 1 µM |
| CC(C)(O)c1cn(-c2ccc(-c3cccc(S(C)(=O)=O)c3)cc2Cl)c(-c2ccccc2C(F)(F)F)n1 [Example 135, 2-(1-(3-chloro-3′-(methyl-sulfonyl)biphenyl-4-yl)-2-(2-(trifluoromethyl)phenyl)-1H-imidazol-4-yl)propan-2-ol] | < 1 µM |
| CCS(=O)(=O)c1cccc(-c2ccc(-n3cc(C(C)(C)O)nc3-c3ccccc3C(F)(F)F)c(Cl)c2)c1 [Example 136, 2-(1-(3-chloro-3′-(ethyl-sulfonyl)biphenyl-4-yl)-2-(2-(trifluoromethyl)phenyl)-1H-imidazol-4-yl)propan-2-ol] | < 1 µM |
| CCS(=O)(=O)c1cccc(-c2ccc(-n3cc(C(C)(C)O)nc3-c3ccccc3Cl)c(Cl)c2)c1 [Example 137, 2-(1-(3-chloro-3′-(ethyl-sulfonyl)biphenyl-4-yl)-2-(2-chlorophenyl)-1H-imidazol-4-yl)propan-2-ol] | < 1 µM |
| CC(C)(O)c1cn(-c2ccc(-c3ccc(CO)c(S(C)(=O)=O)c3)cc2Cl)c(-c2ccccc2Cl)n1 [Example 138, 2-(1-(3-chloro-4′-(hydroxymethyl)-3′-(methylsulfonyl)biphenyl-4-yl)-2-(2-chlorophenyl)-1H-imidazol-4-yl)propan-2-ol] | < 1 µM |
| CC(C)(O)c1cn(-c2ccc(-c3ccc(CO)c(S(C)(=O)=O)c3)cc2Cl)c(-c2ccccc2C(F)(F)F)n1 [Example 139, 2-(1-(3-chloro-4′-(hydroxymethyl)-3′-(methylsulfonyl)biphenyl-4-yl)-2-(2-(trifluoromethyl)phenyl)-1H-imidazol-4-yl)propan-2-ol] | < 1 µM |
